Data taken from patent publication US20160016907A1, “PYRIDINE DERIVATIVES AS MUSCARINIC M1 RECEPTOR POSITIVE ALLOSTERIC MODULATORS” (PFIZER INC., priority 2014, published 2016).

Target: T1, human M1 muscarinic acetylcholine receptors (Homo sapiens, UniProt P11229)
T1 sequence (P11229 1-460): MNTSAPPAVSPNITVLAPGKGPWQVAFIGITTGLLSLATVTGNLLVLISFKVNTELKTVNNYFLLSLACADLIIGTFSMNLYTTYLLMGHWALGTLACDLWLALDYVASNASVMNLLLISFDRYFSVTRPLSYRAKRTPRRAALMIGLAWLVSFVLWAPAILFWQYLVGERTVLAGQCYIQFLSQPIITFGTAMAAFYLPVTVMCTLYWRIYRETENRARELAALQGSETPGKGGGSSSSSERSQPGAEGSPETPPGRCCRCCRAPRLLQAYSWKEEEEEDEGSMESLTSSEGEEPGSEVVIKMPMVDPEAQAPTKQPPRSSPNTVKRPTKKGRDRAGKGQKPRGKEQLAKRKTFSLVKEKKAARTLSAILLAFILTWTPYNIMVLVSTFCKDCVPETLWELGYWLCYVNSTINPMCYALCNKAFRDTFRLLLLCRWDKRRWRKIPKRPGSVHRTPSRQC
Test: M1 FLIPR assay (PAM, intracellular calcium)
Type: cell-based
Details: potentiation of EC10-EC30 acetylcholine, values marked a: geometric mean of ≧7 determinations, read-out: M1 PAM Inflection Point (μM) Geometric mean of 2-6 determinations (unless otherwise indicated)
Procedure: This assay was designed to select and characterize compounds that affect the activity of human M1 muscarinic acetylcholine receptors (Similar M1 PAM FLIPR assays can be found, for example, at U.S. Pat. No. 8,664,234). Human M1 receptors were stably expressed in Chinese hamster ovary (CHO) cells (HD Bioscience). The effect of test compounds on intracellular calcium was measured on an FLIPR Tetra (Molecular Devices) using the Fluo-8, AM calcium dye (Molecular Probes) with a red dye quenching agent (Sigma).
CHO cells expressing hM1 cells had been previously cultured and frozen in assay ready vials. Cell vials were thawed, then plated at a density of 10,000 cells per well in a 384 well black wall, clear bottom plate (Greiner #781090) and incubated overnight at 37 degrees C. with 5% CO2. Cells were grown and plated in F12 nutrient media (Gibco BRL #21700-075) supplemented with 10% FBS (Hyclone #CH30160.03) and Pen/Strep (Gibco #15070-063).
After overnight incubation, cell plates were removed from the incubator and the growth media was discarded and replaced with loading solution containing the following: 2 μM Fluo-8-AM (Molecular Probes #F14242), 2 mM Probenecid (Sigma #P8761), lx Acid Red 1 (Sigma #210633), in HBSS buffer containing (grams/L): 0.1 CaCl2, 0.1 MgCl2*6H2O, 0.049 MgSO4, 0.4 KCl, 0.06 KH2PO4, 8.06 NaCl, 0.12 Na2HPO4*12H2O, 1.1 D-glucose*H2O, 0.35 NaHCO3, 4.766 HEPES, pH 7.4. The plate was incubated in the loading solution at 37 degrees C. in the dark for 1 hour.
Test compounds were initially prepared as 100% DMSO stock solutions, then transferred and serially diluted in 384-well compound plates (Greiner #784201). Each compound was tested at 10 concentrations in duplicate per experiment. Positive and negative controls for positive allosteric modulator evaluation were 30 μM acetylcholine (Ach) and an EC10-EC30 concentration of acetylcholine, approximately 2 nM but could be adjusted for each experiment to maintain the EC10-EC30 range.
After the 1-hour dye loading incubation, test compounds were added to the cell plate containing Fluo-8. Approximately 10 minutes after compound addition, an EC10-EC30 concentration of acetylcholine was added to each well and the fluorescence measured to determine the PAM potentiation of the compound.
Data was exported from the FLIPR Tetra as maximum fluorescence/minimum fluorescence for each well. The percent effect for each compound well was determined using the mean values for the positive and negative controls on each plate for each read. Percent effect was 100*(compound negative control)/(positive control negative control). Dose response curves were fitted to the compound percent effect data using a 4-parameter logistic fit model to determine PAM (positive allosteric modulator) Inflection Point values. Compounds with inverted U dose response curves had the concentrations greater than the concentration giving the peak response excluded from the fit. Data was reported as Inflection Point. The compounds of Examples 1-72 had activity according to this assay, generally with an Inflection Point (IP) of 10 μM or less (using Inflection Point as a measure of activity). Such a result is indicative of the intrinsic activity of the compounds of the invention as M1 allosteric modulators.

Row | SMILES | EC50 [µM]
1 | Cc1cnc(C(=O)NCC2(O)CCCC2)cc1Cc1ccc(-n2cccn2)cc1 [Example 27, N-[(1-hydroxycyclopentyl)methyl]-5-methyl-4-[4-(1H-pyrazol-1-yl)benzyl]pyridine-2-carboxamide] | 1.55
2 | Cc1cnc(C(=O)N[C@H]2CCCC[C@@H]2O)cc1Cc1ccc(Cl)nc1 [Example 51, 4-[(6-chloropyridin-3-yl)methyl]-N-[(1S,2S)-2-hydroxycyclohexyl]-5-methylpyridine-2-carboxamide] | 2.83
3 | Cc1cnc(C(=O)NC2CCCCC2O)cc1Cc1ccc(-n2cccn2)cc1 (single isomer, unassigned; (+)) [Example 13, (+)-N-[(1,2-cis)-2-Hydroxycyclohexyl]-5-methyl-4-[4-(1H-pyrazol-1-yl)benzyl]pyridine-2-carboxamide] | 1.46
4 | Cc1cnc(C(=O)NCC(=O)N(C)C)cc1Cc1ccc(-n2cccn2)cc1 [Example 41, N-[2-(dimethylamino)-2-oxoethyl]-5-methyl-4-[4-(1H-pyrazol-1-yl)benzyl]pyridine-2-carboxamide] | 8.03
5 | Cc1cnc(C(=O)N[C@H]2CCOC[C@@H]2O)cc1[C@@H](F)c1ccc(-n2cccn2)cc1 [Example 55, 4-{(S)-Fluoro[4-(1H-pyrazol-1-yl)phenyl]methyl}-N-[(3R,4S)-3-hydroxytetrahydro-2H-pyran-4-yl]-5-methylpyridine-2-carboxamide] | > 9.12
6 | Cc1nc(C(=O)N[C@H]2CCCC[C@@H]2O)cc(Cc2ccc(-n3cccn3)cc2)c1Cl [Example 17, 5-Chloro-N-[(1S,2S)-2-hydroxycyclohexyl]-6-methyl-4-[4-(1H-pyrazol-1-yl)benzyl]pyridine-2-carboxamide] | 0.191
7 | Cc1cnc(C(=O)NC2CCCCC2(F)F)cc1Cc1ccc(-n2cccn2)cc1 (single isomer, unassigned) [Example 46] | 1.22
8 | Cc1cnc(C(=O)NCc2ccon2)cc1Cc1ccc(-n2cccn2)cc1 [Example 42, 5-methyl-N-(1,2-oxazol-3-ylmethyl)-4-[4-(1H-pyrazol-1-yl)benzyl]pyridine-2-carboxamide] | 8.13
9 | CC[C@@H](CO)NC(=O)c1cc(Cc2ccc(-n3cccn3)cc2)c(C)cn1 [Example 39, N-[(2S)-1-hydroxybutan-2-yl]-5-methyl-4-[4-(1H-pyrazol-1-yl)benzyl]pyridine-2-carboxamide] | 4.83
10 | Cc1cnc(C(=O)NC2CCCCC2O)cc1Cc1ccc(-n2cccn2)cc1 (single isomer, unassigned; (-)) [Example 12, (−)-N-[(1,2-cis)-2-Hydroxycyclohexyl]-5-methyl-4-[4-(1H-pyrazol-1-yl)benzyl]pyridine-2-carboxamide] | 0.96
11 | Cc1cnc(C(=O)NC2CCCCC2(F)F)cc1Cc1ccc(-n2cccn2)cc1 (single isomer, unassigned) [Example 47] | 0.57
12 | Cc1cnc(C(=O)NC[C@H]2CCCO2)cc1Cc1ccc(-n2cccn2)cc1 [Example 43, 5-methyl-4-[4-(1H-pyrazol-1-yl)benzyl]-N-[(2R)-tetrahydrofuran-2-ylmethyl]pyridine-2-carboxamide] | 9.25
13 | CO[C@H]1CCCC[C@@H]1NC(=O)c1cc(Cc2ccc(-n3cccn3)cc2)c(C)cn1 [Example 22, N-[(1S,2S)-2-methoxycyclohexyl]-5-methyl-4-[4-(1H-pyrazol-1-yl)benzyl]pyridine-2-carboxamide] | > 5.99
14 | Cc1cnc(C(=O)N[C@H]2C[C@@](C)(O)C2)cc1Cc1ccc(-n2cccn2)cc1 [Example 30] | 1.12

Next, values leading:

Row | EC50 [µM] | SMILES
15 | 0.116 | Cc1cnc(C(=O)N[C@H]2CCOC[C@@H]2O)cc1Cc1ccc(-c2cn(C)nc2C)cc1 [Example 61, 4-[4-(1,3-Dimethyl-1H-pyrazol-4-yl)benzyl]-N-[(3R,4S)-3-hydroxytetrahydro-2H-pyran-4-yl]-5-methylpyridine-2-carboxamide]
16 | 0.125 | Cc1cnc(C(=O)N[C@H]2CCOC[C@@H]2O)cc1Cc1ccc(-c2cnn(C)c2)cc1F [Example 2, 4-[2-Fluoro-4-(1-methyl-1H-pyrazol-4-yl)benzyl]-N-[(3R,4S)-3-hydroxytetrahydro-2H-pyran-4-yl]-5-methylpyridine-2-carboxamide]
17 | 0.052 | Cc1cnc(C(=O)N[C@H]2CCOC[C@@H]2O)cc1Cc1ccc(-c2cnn(C)c2)cc1 [Example 67, N-[(3R,4S)-3-hydroxytetrahydro-2H-pyran-4-yl]-5-methyl-4-[4-(1-methyl-1H-pyrazol-4-yl)benzyl]pyridine-2-carboxamide]
18 | 0.114 | Cc1cnc(C(=O)N[C@H]2CCOC[C@@H]2O)cc1Cc1ccc(-c2cn[nH]c2)cc1 [Example 66, N-[(3R,4S)-3-hydroxytetrahydro-2H-pyran-4-yl]-5-methyl-4-[4-(1H-pyrazol-4-yl)benzyl]pyridine-2-carboxamide]
19 | 0.06 | Cc1cnc(C(=O)N[C@H]2CCOC[C@@H]2O)cc1Cc1ccc(-c2cscn2)cc1 [Example 7, N-[(3R,4S)-3-Hydroxytetrahydro-2H-pyran-4-yl]-5-methyl-4-[4-(1,3-thiazol-4-yl)benzyl]pyridine-2-carboxamide]
20 | 5.57 | Cc1nc(-c2ccc(Cc3cc(C(=O)N[C@H]4CCOC[C@@H]4O)ncc3C)cc2)no1 [Example 19, N-[(3R,4S)-3-hydroxytetrahydro-2H-pyran-4-yl]-5-methyl-4-[4-(5-methyl-1,2,4-oxadiazol-3-yl)benzyl]pyridine-2-carboxamide]
21 | 0.142 | Cc1cnc(C(=O)N[C@H]2CCOC[C@@H]2O)cc1Cc1ccc(-c2ccn(C)n2)cc1 [Example 6, N-[(3R,4S)-3-Hydroxytetrahydro-2H-pyran-4-yl]-5-methyl-4-[4-(1-methyl-1H-pyrazol-3-yl)benzyl]pyridine-2-carboxamide]
22 | 0.187 | O=C(N[C@H]1CCOC[C@@H]1O)c1cc(Cc2ccc(-n3cccn3)cc2)c(Cl)cn1 [Example 52, 5-chloro-N-[(3R,4S)-3-hydroxytetrahydro-2H-pyran-4-yl]-4-[4-(1H-pyrazol-1-yl)benzyl]pyridine-2-carboxamide]
23 | 0.198 | O=C(N[C@H]1CCOC[C@@H]1O)c1cc(Cc2ccc(-n3cccn3)cc2)c(C(F)F)cn1 [Example 54, 5-(difluoromethyl)-N-[(3R,4S)-3-hydroxytetrahydro-2H-pyran-4-yl]-4-[4-(1H-pyrazol-1-yl)benzyl]pyridine-2-carboxamide]
24 | 0.048 | Cc1nc(-c2ccc(Cc3cc(C(=O)N[C@H]4CCOC[C@@H]4O)ncc3C)cc2)cs1 [Example 69, N-[(3R,4S)-3-hydroxytetrahydro-2H-pyran-4-yl]-5-methyl-4-[4-(2-methyl-1,3-thiazol-4-yl)benzyl]pyridine-2-carboxamide]
25 | 0.074 | COc1cnc(C(=O)N[C@H]2CCOC[C@@H]2O)cc1Cc1ccc(-c2cscn2)cc1 [Example 68, N-[(3R,4S)-3-hydroxytetrahydro-2H-pyran-4-yl]-5-methoxy-4-[4-(1,3-thiazol-4-yl)benzyl]pyridine-2-carboxamide]
26 | 0.144 | Cc1cnc(C(=O)N[C@H]2CCOC[C@@H]2O)cc1Cc1ccc(-c2cocn2)cc1 [Example 57, N-[(3R,4S)-3-Hydroxytetrahydro-2H-pyran-4-yl]-5-methyl-4-[4-(1,3-oxazol-4-yl)benzyl]pyridine-2-carboxamide]
